# In ChEMBL document CHEMBL1201862, “PubChem BioAssay data set” (2004):
#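 Dose response: 5 concentrations. Exposure: 48 h. Format: 96-well plates. Endpoint: linear interpolation; highest concentration if not reached. GI50: concentration for 50% inhibition of growth.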 The source made the active and inactive calls. Cut-off read from the data, not from the text of the source: active = GI50 up to about 1.1 µM and inactive = higher.
# Key:
# Experiment in all cases: DTP human tumour cell line panel, 48 h
# SK-MEL-2 = system: SK-MEL-2
# LOX IMVI = system: LOX IMVI
# SK-OV-3 = system: SK-OV-3
# OVCAR-5 = system: OVCAR-5
# IGROV-1 = system: IGROV-1
# HL-60 = system: HL-60
# SW-620 = system: SW-620
# HOP-92 = system: HOP-92
# SNB-75 = system: SNB-75
# RXF 393 = system: RXF 393
# OVCAR-4 = system: OVCAR-4
# U-251 = system: U-251
# DU-145 = system: DU-145
# MDA-MB-231 = system: MDA-MB-231
# UACC-257 = system: UACC-257
# RPMI-8226 = system: RPMI-8226
# SNB-19 = system: SNB-19
# HT-29 = system: HT-29
# CAKI-1 = system: CAKI-1
# SK-MEL-28 = system: SK-MEL-28
# HCT-116 = system: HCT-116
# MOLT-4 = system: MOLT-4
# SF-295 = system: SF-295
# MCF7 = system: MCF7
# SF-539 = system: SF-539
# MDA-MB-435 = system: MDA-MB-435
# EKVX = system: EKVX
# COLO 205 = system: COLO 205
# BT-549 = system: BT-549
# OVCAR-3 = system: OVCAR-3
# OVCAR-8 = system: OVCAR-8
# PC-3 = system: PC-3
# HCT-15 = system: HCT-15
# SF-268 = system: SF-268
# K562 = system: K562
# NCI-H226 = system: NCI-H226
# MDA-N = system: MDA-N
# SR = system: SR
# HOP-62 = system: HOP-62
# UO-31 = system: UO-31
# SK-MEL-5 = system: SK-MEL-5
# SN12C = system: SN12C
# A498 = system: A498
# M14 = system: M14
# KM12 = system: KM12
# UACC-62 = system: UACC-62
# TK-10 = system: TK-10
# Malme-3M = system: Malme-3M
# NCI/ADR-RES = system: NCI/ADR-RES
# ACHN = system: ACHN
# NCI-H522 = system: NCI-H522
# HCC 2998 = system: HCC 2998
# T47D = system: T47D
# Hs-578T = system: Hs-578T
# A549 = system: A549
# 786-0 = system: 786-0
# NCI-H460 = system: NCI-H460
# CCRF-CEM = system: CCRF-CEM
# NCI-H23 = system: NCI-H23
smiles,measurement,setting,value
COc1cc2ccc(C(C)NCC#N)cc2cc1OC (stereo not given),GI50,SK-MEL-2,> 100 µM (inactive)
same,GI50,LOX IMVI,> 100 µM (inactive)
same,GI50,SK-OV-3,> 100 µM (inactive)
same,GI50,OVCAR-5,> 100 µM (inactive)
same,GI50,IGROV-1,> 100 µM (inactive)
same,GI50,HL-60,46.5 µM (inactive)
same,GI50,SW-620,> 100 µM (inactive)
same,GI50,HOP-92,> 100 µM (inactive)
same,GI50,SNB-75,> 100 µM (inactive)
same,GI50,RXF 393,> 100 µM (inactive)
same,GI50,OVCAR-4,> 100 µM (inactive)
same,GI50,U-251,> 100 µM (inactive)
same,GI50,DU-145,> 100 µM (inactive)
same,GI50,MDA-MB-231,> 100 µM (inactive)
same,GI50,UACC-257,> 100 µM (inactive)
same,GI50,RPMI-8226,> 100 µM (inactive)
same,GI50,SNB-19,> 100 µM (inactive)
same,GI50,HT-29,75.2 µM (inactive)
same,GI50,CAKI-1,> 100 µM (inactive)
same,GI50,SK-MEL-28,> 100 µM (inactive)
same,GI50,HCT-116,> 100 µM (inactive)
same,GI50,MOLT-4,28.8 µM (inactive)
same,GI50,SF-295,> 100 µM (inactive)
same,GI50,MCF7,> 100 µM (inactive)
same,GI50,SF-539,> 100 µM (inactive)
same,GI50,MDA-MB-435,> 100 µM (inactive)
same,GI50,EKVX,> 100 µM (inactive)
same,GI50,COLO 205,> 100 µM (inactive)
same,GI50,BT-549,> 100 µM (inactive)
same,GI50,OVCAR-3,> 100 µM (inactive)
same,GI50,OVCAR-8,> 100 µM (inactive)
same,GI50,PC-3,> 100 µM (inactive)
same,GI50,HCT-15,> 100000 nM
same,GI50,SF-268,> 100 µM (inactive)
same,GI50,K562,> 100 µM (inactive)
same,GI50,NCI-H226,> 100 µM (inactive)
same,GI50,MDA-N,> 100 µM (inactive)
same,GI50,SR,28.1 µM (inactive)
same,GI50,HOP-62,> 100 µM (inactive)
same,GI50,UO-31,> 100 µM (inactive)
same,GI50,SK-MEL-5,> 100 µM (inactive)
same,GI50,SN12C,> 100 µM (inactive)
same,GI50,A498,> 100 µM (inactive)
same,GI50,M14,> 100 µM (inactive)
same,GI50,KM12,> 100 µM (inactive)
same,GI50,UACC-62,> 100 µM (inactive)
same,GI50,TK-10,> 100 µM (inactive)
same,GI50,Malme-3M,> 100 µM (inactive)
same,GI50,NCI/ADR-RES,> 100 µM (inactive)
same,GI50,ACHN,> 100 µM (inactive)
same,GI50,NCI-H522,> 100 µM (inactive)
same,GI50,HCC 2998,36.4 µM (inactive)
same,GI50,T47D,> 100 µM (inactive)
same,GI50,Hs-578T,> 100 µM (inactive)
same,GI50,A549,> 100 µM (inactive)
same,GI50,786-0,> 100 µM (inactive)
same,GI50,NCI-H460,> 100 µM (inactive)
COC(=O)[C@]1(C)[C@H]2C[C@H]3O[C@H]4[C@H](O)[C@@H](O)OC(CC(O)C(C5=CC(=O)OC5)C(C5=CC(=O)OC5)C(O)CC56CCCCC7[C@@H](C)[C@H](C[C@H]8[C@](C)(C(=O)OC)[C@H](O)CC[C@]78C)O[C@H]([C@@H](O)[C@H](O)O5)[C@H]6O)(CCCCC([C@@H]3C)[C@]2(C)CC[C@@H]1O)[C@H]4O (stereo not given in full),GI50,SK-MEL-2,0.237 µM (active)
same,GI50,LOX IMVI,0.0993 µM (active)
same,GI50,SK-OV-3,0.302 µM (active)
same,GI50,OVCAR-5,0.592 µM (active)
same,GI50,IGROV-1,0.0959 µM (active)
same,GI50,HL-60,0.0513 µM (active)
same,GI50,CCRF-CEM,60.3 nM (active)
same,GI50,SW-620,0.168 µM (active)
same,GI50,HOP-92,0.281 µM (active)
same,GI50,SNB-75,0.129 µM (active)
same,GI50,RXF 393,0.0356 µM (active)
same,GI50,OVCAR-4,0.147 µM (active)
same,GI50,U-251,0.194 µM (active)
same,GI50,DU-145,0.0628 µM (active)
same,GI50,MDA-MB-231,0.347 µM (active)
same,GI50,UACC-257,0.244 µM (active)
same,GI50,SNB-19,0.372 µM (active)
same,GI50,HT-29,0.157 µM (active)
same,GI50,CAKI-1,0.0488 µM (active)
same,GI50,SK-MEL-28,0.262 µM (active)
same,GI50,HCT-116,0.0404 µM (active)
same,GI50,MOLT-4,< 0.0184 µM (active)
same,GI50,SF-295,0.0767 µM (active)
same,GI50,MCF7,0.111 µM (active)
same,GI50,SF-539,0.0394 µM (active)
same,GI50,MDA-MB-435,0.247 µM (active)
same,GI50,EKVX,0.0295 µM (active)
same,GI50,COLO 205,0.338 µM (active)
same,GI50,BT-549,0.0625 µM (active)
same,GI50,OVCAR-3,0.103 µM (active)
same,GI50,OVCAR-8,0.188 µM (active)
same,GI50,PC-3,0.065 µM (active)
same,GI50,HCT-15,143 nM
same,GI50,SF-268,< 0.0272 µM (active)
same,GI50,K562,0.234 µM (active)
same,GI50,NCI-H226,0.973 µM (active)
same,GI50,MDA-N,0.138 µM (active)
same,GI50,SR,0.0545 µM (active)
same,GI50,HOP-62,0.065 µM (active)
same,GI50,UO-31,0.057 µM (active)
same,GI50,SK-MEL-5,0.0296 µM (active)
same,GI50,SN12C,< 0.021 µM (active)
same,GI50,A498,0.0916 µM (active)
same,GI50,M14,0.332 µM (active)
same,GI50,KM12,0.353 µM (active)
same,GI50,UACC-62,0.33 µM (active)
same,GI50,TK-10,< 0.0391 µM (active)
same,GI50,Malme-3M,0.0989 µM (active)
same,GI50,NCI/ADR-RES,0.0973 µM (active)
same,GI50,ACHN,< 0.0218 µM (active)
same,GI50,NCI-H522,< 0.01 µM (active)
same,GI50,HCC 2998,0.655 µM (active)
same,GI50,T47D,0.299 µM (active)
same,GI50,Hs-578T,< 0.0251 µM (active)
same,GI50,NCI-H23,43.9 nM (active)
same,GI50,A549,0.0286 µM (active)
same,GI50,786-0,0.0318 µM (active)
same,GI50,NCI-H460,0.0233 µM (active)
